Reference: ChEMBL document CHEMBL1201862, “PubChem BioAssay data set” (2004)
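Dose response: 5 concentrations. Exposure: 48 h. Format: 96-well plates. Endpoint: linear interpolation; highest concentration if not reached. GI50 is the concentration that inhibits growth by half.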 The source made the active and inactive calls. Cut-off read from the data, not from the text of the source: active = GI50 up to about 1.1 µM and inactive = higher.

Experiments:
Assay in all cases: growth of human tumour cells (NCI), 48 h
RPMI-8226 = system: RPMI-8226
RXF 393 = system: RXF 393
NCI/ADR-RES = system: NCI/ADR-RES
DU-145 = system: DU-145
SK-MEL-2 = system: SK-MEL-2
CAKI-1 = system: CAKI-1
SN12C = system: SN12C
SK-MEL-28 = system: SK-MEL-28
MDA-N = system: MDA-N
OVCAR-4 = system: OVCAR-4
SR = system: SR
MOLT-4 = system: MOLT-4
HL-60 = system: HL-60
OVCAR-8 = system: OVCAR-8
LOX IMVI = system: LOX IMVI
OVCAR-5 = system: OVCAR-5
NCI-H226 = system: NCI-H226
HOP-62 = system: HOP-62
EKVX = system: EKVX
KM12 = system: KM12

Measured: GI50

CCOC(=O)CCc1c(C)c2ccc(O)cc2oc1=O
inactive: RPMI-8226 > 100 µM | RXF 393 > 100 µM | NCI/ADR-RES > 100 µM | DU-145 > 100 µM | SK-MEL-2 > 100 µM | CAKI-1 > 100 µM | SN12C > 100 µM | SK-MEL-28 > 100 µM | MDA-N > 100 µM | OVCAR-4 > 100 µM | SR > 100 µM | MOLT-4 > 100 µM | HL-60 > 100 µM | OVCAR-8 > 100 µM | LOX IMVI > 100 µM | OVCAR-5 > 100 µM | NCI-H226 > 100 µM | HOP-62 > 100 µM | EKVX > 100 µM

COc1ccc(/C=C/c2ccnc3ccccc23)cc1
inactive: RPMI-8226 10.7 µM | RXF 393 19.3 µM | NCI/ADR-RES 14.2 µM | DU-145 14.8 µM | SK-MEL-2 20.3 µM | CAKI-1 17.7 µM | SN12C 18.6 µM | SK-MEL-28 14.5 µM | MDA-N 16.6 µM | OVCAR-4 3.03 µM | SR 29.3 µM | MOLT-4 12.2 µM | HL-60 6.78 µM | KM12 16.5 µM | LOX IMVI 16.5 µM | OVCAR-5 21.4 µM | NCI-H226 21.9 µM | HOP-62 20.5 µM | EKVX 13.1 µM

O=C(CCc1ccc(O)c(O)c1)NCCc1cc(OCc2ccccc2)cc(OCc2ccccc2)c1
inactive: RPMI-8226 5.27 µM | RXF 393 10.1 µM | NCI/ADR-RES 13.1 µM | DU-145 14.1 µM | SK-MEL-2 17.9 µM | CAKI-1 4.45 µM | SN12C 10.4 µM | SK-MEL-28 10.8 µM | MDA-N 11 µM | SR 2.88 µM | MOLT-4 2.52 µM | HL-60 2.51 µM | KM12 8.99 µM | OVCAR-8 13.6 µM | LOX IMVI 10.4 µM | OVCAR-5 13.1 µM | NCI-H226 20.1 µM | HOP-62 13.1 µM | EKVX 13.1 µM

CCOC(=O)NN(C(=O)OCC)C(C(=O)c1ccccc1)N(NC(=O)OCC)C(=O)OCC
inactive: RPMI-8226 > 100 µM | RXF 393 > 100 µM | NCI/ADR-RES > 100 µM | DU-145 > 100 µM | CAKI-1 > 100 µM | SN12C > 100 µM | SK-MEL-28 > 100 µM | MDA-N > 100 µM | OVCAR-4 > 100 µM | SR > 100 µM | MOLT-4 > 100 µM | HL-60 > 100 µM | KM12 > 100 µM | OVCAR-8 > 100 µM | LOX IMVI > 100 µM | OVCAR-5 > 100 µM | NCI-H226 > 100 µM | HOP-62 > 100 µM | EKVX > 100 µM

Cc1csc(NNC(=O)Nc2ccccc2)n1
inactive: RPMI-8226 > 100 µM | RXF 393 > 100 µM | NCI/ADR-RES > 100 µM | DU-145 > 100 µM | SK-MEL-2 > 100 µM | CAKI-1 > 100 µM | SN12C > 100 µM | SK-MEL-28 > 100 µM | MDA-N > 100 µM | OVCAR-4 > 100 µM | SR > 100 µM | HL-60 > 100 µM | KM12 > 100 µM | OVCAR-8 > 100 µM | LOX IMVI > 100 µM | OVCAR-5 > 100 µM | NCI-H226 > 100 µM | HOP-62 > 100 µM | EKVX > 100 µM

O=C(CSc1nc2ccccc2c(=O)n1-c1ccccc1)N/N=C1\C(=O)Nc2ccc(F)cc21
inactive: RPMI-8226 2.3 µM | RXF 393 1.95 µM | NCI/ADR-RES 2.21 µM | DU-145 1.89 µM | SK-MEL-2 1.88 µM | CAKI-1 1.73 µM | SN12C 1.97 µM | SK-MEL-28 2.08 µM | MDA-N 3.47 µM | OVCAR-4 1.82 µM | SR 1.53 µM | MOLT-4 1.61 µM | HL-60 1.82 µM | KM12 3.71 µM | LOX IMVI 4.31 µM | OVCAR-5 2.04 µM | NCI-H226 2.28 µM | HOP-62 2.09 µM | EKVX 2.43 µM

CCCC1(N)CC(OC)OC(C)C1O (configuration not stated)
inactive: RPMI-8226 > 100 µM | RXF 393 > 100 µM | NCI/ADR-RES > 100 µM | DU-145 > 100 µM | SK-MEL-2 > 100 µM | CAKI-1 > 100 µM | SN12C > 100 µM | SK-MEL-28 > 100 µM | MDA-N > 100 µM | SR > 100 µM | MOLT-4 > 100 µM | HL-60 > 100 µM | KM12 > 100 µM | OVCAR-8 > 100 µM | LOX IMVI > 100 µM | OVCAR-5 > 100 µM | NCI-H226 > 100 µM | HOP-62 > 100 µM | EKVX > 100 µM

O=c1cc(NNc2cccc(F)c2)[nH]c(=O)[nH]1
inactive: RPMI-8226 16.7 µM | RXF 393 20.5 µM | NCI/ADR-RES > 100 µM | DU-145 > 100 µM | SK-MEL-2 40.5 µM | CAKI-1 16.4 µM | SN12C > 100 µM | SK-MEL-28 > 100 µM | MDA-N 80.2 µM | OVCAR-4 > 100 µM | SR 10.2 µM | MOLT-4 27.9 µM | HL-60 19.1 µM | KM12 > 100 µM | LOX IMVI 18 µM | OVCAR-5 > 100 µM | NCI-H226 > 100 µM | HOP-62 > 100 µM

COc1ccc(NC=O)c(C(O)CCNC(C)=O)c1 (configuration not stated)
inactive: RPMI-8226 > 100 µM | RXF 393 > 100 µM | NCI/ADR-RES > 100 µM | DU-145 > 100 µM | SK-MEL-2 > 100 µM | CAKI-1 > 100 µM | SN12C > 100 µM | MDA-N > 100 µM | OVCAR-4 > 100 µM | SR > 100 µM | MOLT-4 > 100 µM | HL-60 > 100 µM | KM12 > 100 µM | OVCAR-8 > 100 µM | LOX IMVI > 100 µM | OVCAR-5 > 100 µM | NCI-H226 > 100 µM | EKVX > 100 µM

CCC(=O)N(c1ccccc1)C(C)CN1CCC(O)(c2ccccc2)CC1 (configuration not stated)
inactive: RPMI-8226 > 100 µM | RXF 393 > 100 µM | NCI/ADR-RES > 100 µM | DU-145 > 100 µM | SK-MEL-2 > 100 µM | CAKI-1 > 100 µM | SN12C > 100 µM | SK-MEL-28 > 100 µM | MDA-N > 100 µM | OVCAR-4 > 100 µM | SR > 100 µM | MOLT-4 > 100 µM | HL-60 > 100 µM | OVCAR-8 > 100 µM | LOX IMVI > 100 µM | OVCAR-5 > 100 µM | NCI-H226 > 100 µM | HOP-62 > 100 µM | EKVX > 100 µM

COc1ccccc1/[N+]([O-])=C/c1ccccc1OC(=S)S
inactive: RPMI-8226 21.8 µM | RXF 393 33.7 µM | NCI/ADR-RES 30.6 µM | DU-145 70.5 µM | SK-MEL-2 21.5 µM | CAKI-1 58.9 µM | SN12C 88.1 µM | SK-MEL-28 > 100 µM | MDA-N 17.7 µM | OVCAR-4 28.3 µM | SR 31.5 µM | MOLT-4 27.5 µM | HL-60 25.8 µM | KM12 47.6 µM | OVCAR-8 21.7 µM | LOX IMVI 28.1 µM | OVCAR-5 96.2 µM | NCI-H226 28.8 µM | EKVX 30.4 µM
